Assay results as given in the supplement of paper PMC10307832.

Key:
Assay in all cases: relative viability (nuclei count vs DMSO), 5 days (fraction); higher = more cells survive
[1] = compound: COC1=CC=C(C=C1)CN2C=CC3=C2C=C(C=C3)C(=O)NO + Cc1nc(Nc2ncc(C(=O)Nc3c(C)cccc3Cl)s2)cc(N2CCN(CCO)CC2)n1 [Dasatinib] (partner 0.075 µM)
Method in brief: (§1)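 Lung cancer cell lines in 1536-well plates were dosed by pin tool the day after seeding, either with one drug alone or with a fixed anchor-drug dose plus five library-drug doses (not always all listed) in √10 steps. After 5 days, cells were fixed and their nuclei stained in one step (final 0.05% Triton X-100, 1% formaldehyde, 1 ug/ml Hoechst), then counted on 4× images. Relative viability is the nuclei count in treated wells divided by that in vehicle wells. Values are medians of duplicate plates.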

Veliparib + Bortezomib = compound: C[C@]1(c2nc3c(C(N)=O)cccc3[nH]2)CCCN1 [Veliparib] + CC(C)C[C@H](NC(=O)[C@H](Cc1ccccc1)NC(=O)c1cnccn1)B(O)O [Bortezomib] (partner 0.002 µM)
Method in brief: as §1

Veliparib + Tozasertib = compound: C[C@]1(c2nc3c(C(N)=O)cccc3[nH]2)CCCN1 [Veliparib] + Cc1cc(Nc2cc(N3CCN(C)CC3)nc(Sc3ccc(NC(=O)C4CC4)cc3)n2)n[nH]1 [Tozasertib] (partner 0.1 µM)
Method in brief: as §1

Veliparib + Pemetrexed = compound: C[C@]1(c2nc3c(C(N)=O)cccc3[nH]2)CCCN1 [Veliparib] + Nc1nc2[nH]cc(CCc3ccc(C(=O)N[C@@H](CCC(=O)O)C(=O)O)cc3)c2c(=O)[nH]1 [Pemetrexed] (partner 0.2 µM)
Method in brief: as §1

Cell Line	relative viability ([1]; first compound 0.08 µM)	relative viability ([1]; first compound 0.253 µM)	relative viability ([1]; first compound 0.8 µM)	relative viability ([1]; first compound 2.53 µM)	relative viability ([1]; first compound 8 µM)	relative viability (Veliparib + Bortezomib; first compound 0.02 µM)	relative viability (Veliparib + Bortezomib; first compound 0.06325 µM)	relative viability (Veliparib + Bortezomib; first compound 0.2 µM)	relative viability (Veliparib + Bortezomib; first compound 0.6325 µM)	relative viability (Veliparib + Bortezomib; first compound 2 µM)	relative viability (Veliparib + Tozasertib; first compound 0.02 µM)	relative viability (Veliparib + Tozasertib; first compound 0.06325 µM)	relative viability (Veliparib + Tozasertib; first compound 0.2 µM)	relative viability (Veliparib + Tozasertib; first compound 0.6325 µM)	relative viability (Veliparib + Tozasertib; first compound 2 µM)	relative viability (Veliparib + Pemetrexed; first compound 0.02 µM)	relative viability (Veliparib + Pemetrexed; first compound 0.06325 µM)	relative viability (Veliparib + Pemetrexed; first compound 0.2 µM)	relative viability (Veliparib + Pemetrexed; first compound 0.6325 µM)	relative viability (Veliparib + Pemetrexed; first compound 2 µM)
NCI-H1666	0.831	0.783	0.887	0.873	0.822	0.879	0.599	0.81	0.666	0.875	0.582	0.582	0.598	0.547	0.62	0.866	0.782	0.879	0.866	0.898
NCI-H1734	–	0.492	0.547	0.536	0.382	0.911	0.779	0.904	0.827	1.01	0.309	0.262	0.284	0.268	0.269	–	0.396	0.398	0.389	0.392
NCI-H1755	0.37	0.466	0.414	0.444	0.397	0.888	0.892	0.924	0.954	0.868	0.557	0.514	0.569	0.571	0.552	0.405	0.43	0.397	0.392	0.444
NCI-H1915	0.326	0.333	0.314	0.303	0.27	0.939	1.02	0.842	0.915	0.755	0.402	0.426	0.413	0.409	0.394	0.532	0.463	0.537	0.491	0.487
NCI-H1975	0.342	0.413	0.447	0.359	0.325	0.394	0.465	0.429	0.412	0.424	0.932	0.729	0.775	0.699	0.723	0.292	0.332	0.295	0.292	0.311
NCI-H1993	0.569	0.633	0.647	0.665	0.572	0.994	1.31	1.13	1.03	1.06	0.612	0.583	0.671	0.627	0.598	–	0.708	0.616	0.632	0.627
NCI-H2009	0.281	0.284	0.326	0.276	0.197	0.299	0.869	0.808	0.919	1.15	0.798	0.753	0.741	0.745	0.854	1.09	0.952	0.957	0.978	1.07
NCI-H2023	0.553	0.596	0.592	0.577	0.439	0.505	0.913	0.937	0.965	0.924	0.518	0.376	0.342	0.431	0.367	–	0.212	0.27	0.221	0.231
NCI-H2085	0.235	0.293	0.221	0.225	0.214	0.655	0.915	0.898	1.07	0.862	0.737	0.888	0.75	0.738	0.849	0.58	0.952	0.911	0.875	0.802
NCI-H2087	0.93	0.941	0.989	0.983	0.653	0.563	0.819	0.81	0.709	0.838	0.258	0.235	0.222	0.203	0.27	0.715	0.601	0.639	0.622	0.635
NCI-H2126	0.591	0.673	0.655	0.61	0.547	1.03	1.07	1.18	1.14	1.06	0.821	0.784	0.842	0.819	0.849	0.716	0.732	0.71	0.647	0.675
NCI-H2228	–	0.458	0.662	0.497	0.413	0.924	0.844	1	0.843	0.999	0.31	0.318	0.352	0.176	0.353	0.336	0.375	0.398	0.331	0.313
NCI-H2347	0.248	0.246	0.337	0.329	0.325	1.13	0.687	1.09	1.21	0.959	0.55	0.501	0.492	0.553	0.541	0.434	0.456	0.425	0.471	0.445
NCI-H2405	0.209	0.214	0.221	0.196	0.177	0.96	0.858	0.978	0.988	0.93	0.793	0.689	0.714	0.724	0.777	1.08	–	1.11	0.978	1.04
NCI-H3122	0.864	0.869	0.86	0.741	0.527	1.01	0.99	0.968	0.998	0.938	0.439	0.428	0.453	0.383	0.395	0.194	0.203	0.19	0.211	0.2
PC-3 [JPC-3]	0.986	0.974	1.06	1.13	1.03	0.821	0.789	0.85	0.815	0.785	0.87	0.902	0.822	0.864	0.845	1.01	–	1.33	1.28	1.08
